# Entries after “also recorded” stand apart in the source; their conditions may differ.
# Legend:
# p-Myc(T58/S62) = test: Immunoblot analysis of Myc phosphorylation; assay type: cell-based, human; conditions: DLD1 cells; for effect on rapamycin-induced Myc phosphorylation: BX912 2.5 μM or PIK90 5 μM with rapamycin 10 nM
# p-AKT (S473) = test: Immunoblot analysis of AKT S473 phosphorylation; assay type: cell-based, human; conditions: DLD1 cells; for effect on AKT S473 phosphorylation: BX912 2.5 μM or PIK90 5 μM with rapamycin 10 nM, 48 hr
# SW480 and DLD1 cells = test: G2/M phase arrest by PI staining and FACS in SW480 and DLD1 cells; assay type: cell-based, human; conditions: BX912 2.5 μM or PIK90 with rapamycin 10 nM, 48 h
# Protocol: (§1) In brief, 1000 cells were seeded in 96-well plate and the cell number was measured following manufacturer's instruction. To detect the senescence in DLD1-tet on cells, cells were treated with Dox for 48 hr and SA-β-Gal staining was performed according to the protocol of Senescence Detection kit (BioVision). Cell cycle analysis was done by DNA content quantification.
# The cells were fixed with 70% ethanol and stained with propidium iodide (50 μg/ml) staining. The stained cells were analyzed by FACScalibur (BD Bioscience) and quantified by using CellQuest software (BD bioscience).
# SW480 cells = test: Morphologies of SW480 cells under treatment; assay type: cell-based, human
# [1] = system: HEK-TERV cells transformed with PDK1, Myc, shPTEN or PI3K E545K; test: Cell viability / proliferation of transformed HEK-TERV cells with PLK1 inhibitors; assay type: cell-based, human
# PPP2R2B = test: RT-PCR analysis of PPP2R2B expression; assay type: cell-based, human; conditions: DLD1 cells, 5 μM for 3 days
# Protocol: For RT-PCR, total RNA was reverse-transcribed using oligo(dT)12-18 primer (SEQ ID NO: 6)with Superscript II reverse transcriptase (Invitrogen). 100 ng of cDNA was used for PCR. The primers PPP2R2B F: 5′ […] 3′ (SEQ ID NO: 7) and PPP2R2B R: 5′ (SEQ ID NO: 8) […] 3′ were used to amplify the PPP2R2B cDNA.
# [2] = cited from earlier work
# [3] = system: behavioral tasks and aggregate formation; conditions: mouse model of HD; cited from earlier work
# human cancers = conditions: also with intermittent dosing schedule; cited from earlier work
# DLD1 and SW480 cells [4] = test: Cell viability of DLD1 and SW480 cells under drug combinations; assay type: cell-based, human; conditions: BX912 2.5 μM plus rapamycin 10 nM, 5-day cell viability assay
# Protocol: Cell viability was measured using CellTiter-Glo™ Luminescent Cell Viability Assay (Promega).
# as §1
# DLD1 and SW480 cells [5] = test: Monolayer dense foci / colony formation of DLD1 and SW480 cells; assay type: cell-based, human; conditions: BX912 2.5 μM plus rapamycin 10 nM, 2-week colony formation assay
# Protocol: For DLD1 and HCT116 inducible cells foci formation assay, 1×10^4 cells were seeded on 6-well plate with or without treatment with Dox or rapamcycin. […]
smiles,measurement,setting,value
COc1ccc2c(c1OC)N=C(NC(=O)c1cccnc1)N1CCN=C21 [PIK90],effect on rapamycin-induced Myc phosphorylation,p-Myc(T58/S62); 48 hr,unable to inhibit rapamycin-induced Myc phosphorylation
same,effect on AKT S473 phosphorylation,p-AKT (S473),effectively abolished the AKT S473 phosphorylation
same,G2/M arrest in combination with rapamycin,SW480 and DLD1 cells,not
same,morphological change,SW480 cells,not
COc1cc2ncn(-c3cc(OCc4ccccc4C(F)(F)F)c(C(N)=O)s3)c2cc1OC [GW843682X],selectivity of inhibition of proliferation / cell viability (dose-response),"[1]; HEK-PDK1 and HEK-Myc vs HEK-PMN and HEK-shPTEN cells, 4 days",more selectively decrease the cell viability of PDK1 or Myc-transformed cells; also recorded: more selectively inhibit the proliferation of PDK1 or Myc-transformed HEK cells
same,growth inhibition in kinase inhibitor screen,[1]; HEK-PDK1 cells compared to HEK-vector control cells (PMN),selective growth inhibition effect
Cn1c(=O)n(-c2ccc(C(C)(C)C#N)cc2)c2c3cc(-c4cnc5ccccc5c4)ccc3ncc21 [BEZ235],Myc phosphorylation,"p-Myc(T58/S62); BEZ 235 100 nM, 48 hr",induced Myc phosphorylation
Nc1ncn([C@H]2C[C@H](O)[C@@H](CO)O2)c(=O)n1 [5-aza-dC],PPP2R2B expression,PPP2R2B,re-expression of PPP2R2B
Oc1cccc(-c2nc(N3CCOCC3)c3oc4ncccc4c3n2)c1 [PIK-103],Myc phosphorylation,p-Myc(T58/S62); 0.5 μM,enhanced Myc phosphorylation
same,AKT S473 phosphorylation,p-AKT (S473); 0.5 μM,reduced AKT 5473 phosphorylation
"CO[C@H]1C[C@@H]2CC[C@@H](C)[C@@](O)(O2)C(=O)C(=O)N2CCCC[C@H]2C(=O)O[C@H]([C@H](C)C[C@@H]2CC[C@@H](OC(=O)C(C)(CO)CO)[C@H](OC)C2)CC(=O)[C@H](C)/C=C(\C)[C@@H](O)[C@@H](OC)C(=O)[C@H](C)C[C@H](C)/C=C/C=C/C=C/1C [CCI 779, rapamycin 42-[2,2-bis(hydroxymethyl)propionate]]",water solubility,[2],water soluble
same,behavioral performance and aggregate formation,[3],improved performance on 4 different behavioral tasks and decreased aggregate formation
same,growth of cancers,human cancers,inhibit the growth of a diverse range of cancer types
O=C(Nc1cccc(Nc2ncc(Br)c(NCCc3cnc[nH]3)n2)c1)N1CCCC1 [BX912],effect on rapamycin-induced Myc phosphorylation,p-Myc(T58/S62); 48 hr,abolished rapamycin-induced Myc phosphorylation
same,effect on AKT S473 phosphorylation,p-AKT (S473),had no much effect on AKT S473
same,G2/M arrest in combination with rapamycin,SW480 and DLD1 cells,synergized with rapamycin to induce strong G2/M arrest
same,loss of cell viability in combination with rapamycin,DLD1 and SW480 cells [4],synergistic loss of cell viability
same,loss of cell viability in combination with rapamycin (colony formation),DLD1 and SW480 cells [5],synergistic loss of cell viability
same,morphological change,SW480 cells,induced a morphological change similar to that seen upon PPP2R2B re-expression
